US10266549B2, “ULK1 inhibitors and methods using same” (SALK INSTITUTE FOR BIOLOGICAL STUDIES, priority 2014, dated 2019)

Biological target: ULK1 (Homo sapiens (Human), UniProt O75385)
Assay: ULK1 inhibition assay (Table 1)
Format: biochemical
Details: * = tested as a mixture of regioisomers

ULK1, sequence (O75385 whole entry, species assumed): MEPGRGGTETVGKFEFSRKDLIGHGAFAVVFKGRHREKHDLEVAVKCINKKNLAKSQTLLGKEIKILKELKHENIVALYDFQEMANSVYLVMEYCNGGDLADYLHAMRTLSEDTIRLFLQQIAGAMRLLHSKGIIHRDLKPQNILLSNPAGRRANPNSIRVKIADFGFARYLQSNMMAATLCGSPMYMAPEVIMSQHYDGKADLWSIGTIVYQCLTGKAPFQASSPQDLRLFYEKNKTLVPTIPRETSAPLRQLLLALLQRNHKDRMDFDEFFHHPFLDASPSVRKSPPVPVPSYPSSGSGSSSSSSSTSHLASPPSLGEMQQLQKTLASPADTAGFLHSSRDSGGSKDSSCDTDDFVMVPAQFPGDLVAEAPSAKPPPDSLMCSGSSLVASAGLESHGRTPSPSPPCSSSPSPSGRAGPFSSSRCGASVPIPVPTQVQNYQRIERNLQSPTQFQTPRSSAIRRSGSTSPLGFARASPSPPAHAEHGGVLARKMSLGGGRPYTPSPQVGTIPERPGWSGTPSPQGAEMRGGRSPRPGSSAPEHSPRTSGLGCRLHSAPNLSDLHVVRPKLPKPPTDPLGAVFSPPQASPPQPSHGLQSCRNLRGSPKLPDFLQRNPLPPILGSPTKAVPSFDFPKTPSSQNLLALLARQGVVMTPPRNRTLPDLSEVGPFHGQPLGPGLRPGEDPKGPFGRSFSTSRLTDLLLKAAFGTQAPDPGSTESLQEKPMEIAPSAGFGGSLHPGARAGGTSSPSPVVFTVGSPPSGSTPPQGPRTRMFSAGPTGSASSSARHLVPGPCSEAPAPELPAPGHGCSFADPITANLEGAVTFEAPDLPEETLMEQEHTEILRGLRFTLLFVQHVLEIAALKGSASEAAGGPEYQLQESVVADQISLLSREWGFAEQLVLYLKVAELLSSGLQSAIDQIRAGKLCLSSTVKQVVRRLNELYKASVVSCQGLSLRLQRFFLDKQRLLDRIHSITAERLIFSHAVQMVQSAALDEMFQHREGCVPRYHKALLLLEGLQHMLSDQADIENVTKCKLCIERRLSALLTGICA

Q: `CNC(=O)c1ccccc1Nc1nc(Nc2ccc3c(c2)OCCO3)ncc1Cl` [compound 51, 2-(5-Chloro-2-(2,3-dihydrobenzo[b][1,4]dioxin-6-ylamino)pyrimidin-4-ylamino)-N-methylbenzamide] was tested. Which IC50 did it give?
A: Its IC50 is under 200 nM.

Q: `FC(F)(F)c1cnc(NC2CC2)nc1Nc1cnc2[nH]ccc2c1` [152b, N^2-cyclopropyl-N^4-(1H-pyrrolo[2,3-b]pyridin-5-yl)-5-(trifluoromethyl)pyrimidine-2,4-diamine] was tested. Which IC50 did it give?
A: Its IC50 is 200 to 2000 nM.

Q: For `FC(F)(F)c1cnc(Nc2cnc3[nH]ccc3c2)nc1NC1CC1` [152a, N^4-cyclopropyl-N^2-(1H-pyrrolo[2,3-b]pyridin-5-yl)-5-(trifluoromethyl)pyrimidine-2,4-diamine], which IC50 is on record?
A: Its IC50 is under 200 nM.

Q: For `O=C1CCc2cc(Nc3ncc(Br)c(Nc4ccccn4)n3)ccc2N1` [compound 155, 6-((5-bromo-4-(pyridin-2-ylamino)pyrimidin-2-yl)amino)-3,4-dihydroquinolin-2(1H)-one], which IC50 is on record?
A: Its IC50 is under 200 nM.

Q: Which IC50 does the source give for `O=C1CCc2cc(Nc3ncc(C(F)(F)F)c(/C=C/c4ccccc4)n3)ccc2N1` [compound 69, (E)-6-(4-Styryl-5-(trifluoromethyl)pyrimidin-2-ylamino)-3,4-dihydroquinolin-2(1H)-one] here?
A: The IC50 was under 200 nM.

Q: Which IC50 does the source give for `CNC(=O)c1ccccc1Nc1nc(Nc2ccc3c(c2)CCC(=O)N3)ncc1-c1ccccc1` [compound 89, N-Methyl-2-((2-((2-oxo-1,2,3,4-tetrahydroquinolin-6-yl)amino)-5-phenylpyrimidin-4-yl)amino)benzamide] here?
A: Its IC50 is under 200 nM.

Q: `CNC(=O)c1ccccc1Nc1nc(Nc2ccc(N3CCOCC3)cc2OC)ncc1Br` [compound 13, 2-(5-Bromo-2-(2-methoxy-4-morpholinophenylamino)pyrimidin-4-ylamino)-N-methylbenzamide] was tested. Which IC50 did it give?
A: The IC50 was 200 to 2000 nM.

Q: How did the IC50 turn out when `CNC(=O)c1ccccc1Nc1nc(Nc2ccc3c(c2)CCC(=O)N3)ncc1Cl` [compound 19, 2-(5-Chloro-2-(2-oxo-1,2,3,4-tetrahydroquinolin-6-ylamino)pyrimidin-4-ylamino)-N-methylbenzamide] was run?
A: The IC50 was under 200 nM.

Q: For `COc1ccc(C)c(Nc2ncc(Cl)c(Nc3nccc(C)n3)n2)c1` [compound 55, 5-Chloro-N^2-(5-methoxy-2-methylphenyl)-N^4-(4-methylpyrimidin-2-yl)pyrimidine-2,4-diamine], which IC50 is on record?
A: The IC50 was over 2000 nM.

Q: Which IC50 does the source give for `O=C1CCc2cc(Nc3nc(NC4CC4)ncc3C(F)(F)F)ccc2N1` [131b, 6-((2-(cyclopropylamino)-5-(trifluoromethyl)pyrimidin-4-yl)amino)-3,4-dihydroquinolin-2(1H)-one] here?
A: The IC50 was under 200 nM.

Q: `FC(F)(F)c1cnc(N2CCC2)nc1Nc1ccc2c(c1)OCO2` [166a, 2-(azetidin-1-yl)-N-(benzo[d][1,3]dioxol-5-yl)-5-(trifluoromethyl)pyrimidin-4-amine] was tested. Which IC50 did it give?
A: Its IC50 is over 2000 nM.

Q: How did the IC50 turn out when `CNC(=O)c1ccccc1Nc1nc(Nc2cc(OC)ccc2C)ncc1Cl` [compound 16, 2-(5-Chloro-2-(5-methoxy-2-methylphenylamino)pyrimidin-4-ylamino)-N-methylbenzamide] was run?
A: The IC50 was under 200 nM.

Q: `CNC(=O)c1ccccc1Oc1nc(Nc2ccc(C)c(Br)c2)ncc1C(F)(F)F` [compound 102, 2-((2-((3-bromo-4-methylphenyl)amino)-5-(trifluoromethyl)pyrimidin-4-yl)oxy)-N-methylbenzamide] was tested. Which IC50 did it give?
A: Its IC50 is over 2000 nM.

Q: How did the IC50 turn out when `O=C1CCc2cc(Nc3ncc(C(F)(F)F)c(NCc4ccccc4)n3)ccc2N1` [compound 43, 6-(4-(Benzylamino)-5-(trifluoromethyl)pyrimidin-2-ylamino)-3,4-dihydroquinolin-2(1H)-one] was run?
A: Its IC50 is under 200 nM.

Q: `CNC(=O)c1ccccc1Oc1nc(Nc2cc(OC)c(OC)c(OC)c2)ncc1C(F)(F)F` [compound 92, N-Methyl-2-(5-(trifluoromethyl)-2-(3,4,5-trimethoxyphenylamino)pyrimidin-4-yloxy)benzamide] was tested. Which IC50 did it give?
A: The IC50 was under 200 nM.

Q: With `Cc1cnc(Nc2ccc3c(c2)CCC(=O)N3)nc1NCc1cccc(S(C)(=O)=O)c1` [compound 67, 6-((5-Methyl-4-((3-(methylsulfonyl)benzyl)amino)pyrimidin-2-yl)amino)-3,4-dihydroquinolin-2(1H)-one] as the compound, how does the IC50 read?
A: Its IC50 is over 2000 nM.

Q: How did the IC50 turn out when `Oc1ncc(C(F)(F)F)c(Nc2ccccc2N2CCOCC2)n1` [118c, 4-((2-morpholinophenyl)amino)-5-(trifluoromethyl)pyrimidin-2-ol] was run?
A: The IC50 was over 2000 nM.

Q: `CNC(=O)c1ccccc1Nc1nc(Nc2cc(OC)ccc2C)ncc1Br` [compound 17, 2-(5-Bromo-2-(5-methoxy-2-methylphenylamino)pyrimidin-4-ylamino)-N-methylbenzamide] was tested. Which IC50 did it give?
A: The IC50 was under 200 nM.

Q: `O=C1CCc2cc(Nc3ncc(C(F)(F)F)c(-c4ccccc4)n3)ccc2N1` [compound 72, 6-(4-Phenyl-5-(trifluoromethyl)pyrimidin-2-ylamino)-3,4-dihydroquinolin-2(1H)-one] was tested. Which IC50 did it give?
A: The IC50 was over 2000 nM.

Q: For `FC(F)(F)c1cnc(Nc2ccc3c(c2)OCO3)nc1Nc1ccc2c(c1)OCO2` [124c, N^2,N^4-bis(benzo[d][1,3]dioxol-5-yl)-5-(trifluoromethyl)pyrimidine-2,4-diamine], which IC50 is on record?
A: Its IC50 is under 200 nM.

Q: How did the IC50 turn out when `COc1cccc(Nc2ncc(Cl)c(Nc3cccc(OC)c3)n2)c1` [143b, 5-chloro-N^2,N^4-bis(3-methoxyphenyl) pyrimidine-2,4-diamine] was run?
A: Its IC50 is under 200 nM.

Q: How did the IC50 turn out when `CNS(=O)(=O)c1ccccc1Nc1nc(Nc2ccc(N3CCOCC3)cc2OC)ncc1Br` [compound 75, 2-(5-Bromo-2-(2-methoxy-4-morpholinophenylamino)pyrimidin-4-ylamino)-N-methylbenzenesulfonamide] was run?
A: Its IC50 is 200 to 2000 nM.

Q: Which IC50 does the source give for `CNC(=O)c1ccccc1Oc1nc(Nc2cc(OC)ccc2OC)ncc1C(F)(F)F` [109a, 2-((2-((2,5-dimethoxyphenyl)amino)-5-(trifluoromethyl)pyrimidin-4-yl)oxy)-N-methylbenzamide] here?
A: Its IC50 is over 2000 nM.

Q: How did the IC50 turn out when `CNC(=O)c1ccccc1Nc1nc(Nc2ccc3c(c2)OCO3)ncc1Cl` [compound 49, 2-(2-(Benzo[d][1,3]dioxol-5-ylamino)-5-chloropyrimidin-4-ylamino)-N-methylbenzamide] was run?
A: The IC50 was under 200 nM.

Q: For `CNC(=O)c1ccccc1Nc1nc(Nc2ccc3c(c2)CCC(=O)N3)ncc1C(F)(F)F` [compound 76, N-Methyl-2-(2-(2-oxo-1,2,3,4-tetrahydroquinolin-6-ylamino)-5-(trifluoromethyl)pyrimidin-4-ylamino)benzamide], which IC50 is on record?
A: Its IC50 is under 200 nM.

Q: For `CNC(=O)c1ccccc1Oc1nc(Nc2ccc(OC)cc2)ncc1C(F)(F)F` [105a, 2-((2-((4-methoxyphenyl)amino)-5-(trifluoromethyl)pyrimidin-4-yl)oxy)-N-methylbenzamide], which IC50 is on record?
A: Its IC50 is over 2000 nM.

Q: `CNC(=O)c1ccccc1Nc1nc(Nc2cc(OC)c(OC)c(OC)c2)ncc1CCc1ccccc1` [compound 87, N-Methyl-2-((5-phenethyl-2-((3,4,5-trimethoxyphenyl)amino)pyrimidin-4-yl)amino)benzamide] was tested. Which IC50 did it give?
A: Its IC50 is 200 to 2000 nM.

Q: For `CNC(=O)c1ccccc1Nc1nc(Nc2cc(N3CCOCC3)cc(N3CCOCC3)c2)ncc1C(F)(F)F` [compound 90, 2-(2-(3,5-dimorpholinophenylamino)-5-(trifluoromethyl)pyrimidin-4-ylamino)-N-methylbenzamide], which IC50 is on record?
A: The IC50 was under 200 nM.

Q: Which IC50 does the source give for `O=C1CCc2cc(Nc3ncc(C(F)(F)F)c(Nc4cccc5ccccc45)n3)ccc2N1` [126a, 6-((4-(naphthalen-1-ylamino)-5-(trifluoromethyl)pyrimidin-2-yl)amino)-3,4-dihydroquinolin-2(1H)-one] here?
A: Its IC50 is 200 to 2000 nM.

System: PC3 human prostate cells stably expressing GFP-LC3
Assay: GFP-LC3 puncta quantification in PC3 cells
Format: cell-based
Details: PC3 GFP-LC3, control siRNAs, 1 μM mTOR inhibitor for 4 hr
Protocol: At 48 hr after RNAi transfection, the cells were treated with 1 μM of the catalytic mTOR inhibitors AZD8055 or INK128 for 4 hr and assessed for the presence of GFP-LC3 puncta. The average number of GFPLC3 puncta and SD for each siRNA and drug treatment are shown. SRC, c-Src; c-Src kinase, CSK.
To test the ability of compound 14 to block autophagy and cell survival, initial studies were performed in A549 lung cancer cells, which are highly sensitive to mTOR inhibition. […] Next, we genetically assessed the requirement for ULK1 versus other kinases inhibited by compound 14 to induce autophagy after pharmacological mTOR inhibition. A robust high-throughput microscopy method for quantifying GFP-LC3 puncta was established using a PC3 prostate-cancer cell line stably expressing a GFP-LC3 construct. Using this assay, we performed a focused RNAi analysis of the top 20 kinases identified in the DiscovRx screen as best binding to compound 14. […] Strikingly, of the 18 kinases tested, only one kinase siRNA, ULK1, nearly fully abolished the LC3 puncta induced by the mTOR inhibitors (FIG. 9D).

Q: Which “induction in GFP-LC3 puncta formation” value does the source give for `CC(C)n1nc(-c2ccc3oc(N)nc3c2)c2c(N)ncnc21` [INK128, 3-(2-amino-5-benzoxazolyl)-1-(1-methylethyl)-1H-pyrazolo[3,4-d]pyrimidin-4-amine] here?
A: The value was 2 fold.
